The values that follow come from PubChem BioAssay (NCI).

Test systems include A549 NSCLC; RPMI-8226 leukemia; SK-MEL-5 melanoma; MCF7 breast; A498 renal; T-47D breast; HT29 colon; SF-539 CNS; OVCAR-8 ovarian; HCC-2998 colon.
Holding throughout (test): NCI anticancer screen, dose series, 48 h

“And” between values parts separate entries of the source, which are not always exact repeats. Identical values can stand only once.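 Protocol summary: plate cells (96-well), add compound at 5 concentrations, incubate 48 h, interpolate endpoints linearly. Abbreviation: GI50, concentration required for 50% inhibition of growth. At the TGI there is no net growth.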 A value given as a limit tells only on which side of the number the result lay.

In the case of `COc1cc(Cn2c(-c3ccccc3)cc3c2-c2oncc2CC3)cc(OC)c1`, the GI50 in the experiment with A549 NSCLC was 0.404 µM; in the experiment with RPMI-8226 leukemia, 0.459 µM; with SK-MEL-5 melanoma, 0.372 µM; in the experiment with MCF7 breast, 0.307 µM; with A498 renal it was 0.153 µM; in the experiment on T-47D breast it was above 100 µM. For the same molecule, the GI50 with HT29 colon was 0.315 µM; in the experiment on SF-539 CNS, 0.297 µM; in the experiment with OVCAR-8 ovarian, 0.592 µM; in the experiment on HCC-2998 colon it was 0.387 µM. The TGI is above 100 µM in the experiment on A549 NSCLC; 2.02 µM in the experiment on SK-MEL-5 melanoma; above 100 µM with MCF7 breast; 0.75 µM in the experiment on A498 renal; above 100 µM with T-47D breast; 25.9 µM with HT29 colon. Also, the values for the TGI in the experiment with SF-539 CNS, with OVCAR-8 ovarian and with HCC-2998 colon were above 49 µM, above 100 µM and above 100 µM, respectively.
On to `COc1ccc(C(=O)c2cc3c(N)c(C(=O)Nc4cccc(OC)c4)sc3nc2C)cc1`, for which the GI50 in the experiment with A549 NSCLC was 0.753 µM; in the experiment on RPMI-8226 leukemia it was 0.39 µM; in the experiment on SK-MEL-5 melanoma, 0.643 µM; in the experiment with MCF7 breast it was 0.42 µM; in the experiment on A498 renal, 0.393 µM; in the experiment with T-47D breast, 4.7 µM. Also, the GI50 with HT29 colon is 0.472 µM; in the experiment with SF-539 CNS, 0.372 µM; in the experiment on OVCAR-8 ovarian it was 1.75 µM; in the experiment on HCC-2998 colon, 2.2 µM. In addition, the TGI in the experiment with A549 NSCLC was above 100 µM; with SK-MEL-5 melanoma, above 46.1 µM; with MCF7 breast, above 100 µM; in the experiment on T-47D breast, above 100 µM; in the experiment with HT29 colon it was above 100 µM; in the experiment with SF-539 CNS, 2.59 µM. Also, the TGI in the experiment with OVCAR-8 ovarian and with HCC-2998 colon was above 100 µM throughout.
Turning to `O=C(c1ccc2ccccc2c1)c1c(C(F)(F)F)n([O-])c2ccc(F)cc2[n+]1=O`, the GI50 in the experiment with A549 NSCLC was 1.8 µM; in the experiment with RPMI-8226 leukemia, 0.997 µM; with SK-MEL-5 melanoma, 1.75 µM; in the experiment on MCF7 breast, 1.43 µM; in the experiment on A498 renal it was 6.9 µM; in the experiment on T-47D breast, 1.56 µM. Besides, the GI50 was 1.36 µM in the experiment on HT29 colon, 1.88 µM with SF-539 CNS, 0.324 µM in the experiment on OVCAR-8 ovarian and 0.892 µM in the experiment on HCC-2998 colon. Moreover, the TGI in the experiment on A549 NSCLC was found to be 3.41 µM; in the experiment with RPMI-8226 leukemia, 3.93 µM; in the experiment on SK-MEL-5 melanoma, 3.16 µM; in the experiment on MCF7 breast, 3.31 µM; in the experiment on A498 renal it was 21 µM; in the experiment with T-47D breast, 4.05 µM. For the same molecule, the TGI in the experiment with HT29 colon is 3.02 µM; with SF-539 CNS it was 3.32 µM; with OVCAR-8 ovarian, 1.21 µM; in the experiment on HCC-2998 colon it was 2.12 µM.
For the molecule `O=S(=O)(O)SCCNCCCCCC1CCCCC1`, the TGI amounted to 23 µM in the experiment with A549 NSCLC; 42.1 µM in the experiment with RPMI-8226 leukemia; 31.9 µM with SK-MEL-5 melanoma; 7.32 µM with MCF7 breast; 40.6 µM in the experiment with A498 renal; 35.7 µM in the experiment on T-47D breast. For the same molecule, the TGI in the experiment with HT29 colon came out at 19.1 µM; with SF-539 CNS it was 19.6 µM; in the experiment with OVCAR-8 ovarian it was 33.1 µM; in the experiment on HCC-2998 colon it was 10.5 µM.
Regarding `Cc1cc2nc3c4ccc(Br)cc4n(CCN(C)C)c3nc2cc1C`, the GI50 in the experiment on A549 NSCLC is 1.16 µM; in the experiment with RPMI-8226 leukemia it was 2.16 µM; in the experiment on SK-MEL-5 melanoma, 1.72 µM; in the experiment on MCF7 breast, 1.17 µM; in the experiment with A498 renal, 1.02 µM; with T-47D breast, 2.05 µM. Besides, the GI50 in the experiment with HT29 colon was 0.664 µM; in the experiment on SF-539 CNS, 1.6 µM; in the experiment with OVCAR-8 ovarian, 1.24 µM; with HCC-2998 colon, 1.23 µM. In addition, the TGI was found to be 10.3 µM in the experiment on A549 NSCLC; 5.93 µM with RPMI-8226 leukemia; 3.12 µM in the experiment with SK-MEL-5 melanoma; 3.06 µM in the experiment on MCF7 breast; 2.54 µM with A498 renal; 6.6 µM with T-47D breast. Also, the TGI with HT29 colon turned out to be 2.89 µM; in the experiment on SF-539 CNS, 3.17 µM; in the experiment on OVCAR-8 ovarian, 11.8 µM; in the experiment on HCC-2998 colon, 2.74 µM.
As for `O=C(O)CCc1nc(-c2ccccc2-n2cccc2)no1`, the TGI in the experiment with A549 NSCLC, in the experiment with RPMI-8226 leukemia, in the experiment on SK-MEL-5 melanoma, in the experiment with MCF7 breast, with A498 renal and in the experiment on T-47D breast was above 100 µM throughout. In addition, the TGI in the experiment on HT29 colon, in the experiment on SF-539 CNS, in the experiment with OVCAR-8 ovarian and in the experiment with HCC-2998 colon was above 100 µM throughout.
Turning to `CCCCCCCCCCSC(=N)N`, the GI50 in the experiment on A549 NSCLC is 5.59 µM; in the experiment on RPMI-8226 leukemia it was 1.73 µM; with SK-MEL-5 melanoma, 2.12 µM; in the experiment on MCF7 breast, 2.19 µM; with A498 renal it was 4.69 µM; with T-47D breast, 2.04 µM. Besides, the GI50 in the experiment with HT29 colon was 1.42 µM; with SF-539 CNS it was 10.2 µM; with OVCAR-8 ovarian, 4.17 µM; in the experiment on HCC-2998 colon, 1.72 µM. In addition, the TGI turned out to be 18.6 µM in the experiment on A549 NSCLC; 4.19 µM with RPMI-8226 leukemia; 4.71 µM in the experiment with SK-MEL-5 melanoma; 6.03 µM in the experiment with MCF7 breast; 19.3 µM with A498 renal; 4.55 µM in the experiment with T-47D breast. Moreover, the TGI with HT29 colon amounted to 2.84 µM; in the experiment on SF-539 CNS it was 22.1 µM; with OVCAR-8 ovarian it was 19.2 µM; in the experiment with HCC-2998 colon, 3.31 µM.
Take `CC(/C=N/N=C(N)N)=N\N=C(N)N`: the GI50 was above 52.4 µM in the experiment with A549 NSCLC; above 42.8 µM with RPMI-8226 leukemia; above 79.5 µM with SK-MEL-5 melanoma; 19.4 µM in the experiment on MCF7 breast; above 77.9 µM in the experiment on A498 renal; 5.02 µM in the experiment with T-47D breast. Also, the GI50 was 18.6 µM and 17.1 µM in the experiment with HT29 colon; 21.8 µM in the experiment on SF-539 CNS; 11.6 µM in the experiment on OVCAR-8 ovarian; 9.52 µM in the experiment on HCC-2998 colon. Moreover, the TGI in the experiment with A549 NSCLC is 1780 µM; in the experiment with RPMI-8226 leukemia it was 454 µM; in the experiment on SK-MEL-5 melanoma, 604 µM; in the experiment on MCF7 breast, 1120 µM; in the experiment on A498 renal, 1890 µM; with T-47D breast, 31 µM and 23.4 µM. For the same molecule, the TGI in the experiment with HT29 colon was > 58 µM and 1620 µM; in the experiment on SF-539 CNS it was 103 µM; with OVCAR-8 ovarian it was > 76 µM and 378 µM; with HCC-2998 colon it was > 48.3 µM and 62.7 µM.
